Laboratory results: US20040167226A1, “Methods for the treatment of pain and traumatic injury using benzamides and compositions containing the same” (priority 2002, published 2004)

System: iNOS
Test: Immunohistochemistry for inflammatory marker iNOS on contused spinal cord
Type: in vivo
Settings: rats after contusion injury; 72 h post-injury, 1 mm caudal to epicenter
Procedure: Compound A was tested in both the rat dorsal hemisection (Guth, L. et al. (1980), J. Neurosurgery 52: 73-86) and contusion models (Scheff, S. W. (2003), J. Neurotrauma 20: 179-193) for evaluation of efficacy. These models are widely used in the field of spinal cord injury and replicate many of the pathological aspects found in humans who have sustained a spinal cord injury. Rats were subjected to an experimental spinal cord injury at T8, and were given Compound A shortly thereafter. Behavioral tests to assess the locomotion deficits were performed after the lesion. At the end of the experiment, animals were sacrificed and the spinal cord was collected for histopathological analysis. […] Histological assessment of the tissue at the site of injury was also made in both the drug treated and untreated group. In particular, subsequent to the behavioral measurement, spinal cord tissue from each animal was obtained and serial transverse tissue sections were stained with either anti-neurofilament antibody or antibodies specific for the inflammatory markers, tumor necrosis factor alpha (TNFα) and for the inducible form of nitric oxide synthetase (iNOS), followed by incubation with Alexa Fluor®-conjugated secondary antibodies.
Histological assessment of the tissue at the site of injury was also made in both the drug treated and untreated group. […]

For `CC(=O)Nc1ccc(C(=O)NC(C)(C)C)cc1` [Compound A, N-tert-butyl-4-acetamidobenzamide], which “inflammatory marker iNOS in the region of the corticospinal tract vs untreated control” value is on record?
Its value is “decreased”.
